Experimental data: ChEMBL document CHEMBL4725253, “Discovery of quinoline-based irreversible BTK inhibitors” (Bioorg Med Chem Lett, 2020)

Key:
[1] = target: T1, Tyrosine-protein kinase BTK (Homo sapiens, UniProt Q06187); test: Inhibition of human recombinant full length N-terminal His6-tagged BTK expressed in baculovirus infected Sf9 cells using fluorescein labeled Blk/Lyntide substrate preincubated with enzyme for 60 mins followed by further incubation with substrate and ATP for 120 mins by IMAP assay
[2] = target: T2, Epidermal growth factor receptor (Homo sapiens, UniProt P00533); test: Inhibition of recombinant human GST-tagged EGFR (668 to 1210 residues) expressed in baculovirus expression system using Tyr 04 peptide as substrate preincubated for 1 hr by Z'-LYTE assay
[3] = target: T1, Tyrosine-protein kinase BTK; test: Inhibition of His-tagged recombinant human His-tagged full length BTK expressed in baculovirus expression system using Tyr01 peptide as substrate preincubated for 1 hr by Z'lyte assay
[4] = target: T3, Tyrosine-protein kinase Tec (Homo sapiens, UniProt P42680); test: Inhibition of His-tagged recombinant human TEC expressed in baculovirus expression system preincubated for 1 hr by Z'lyte assay
T3 sequence (P42680 whole entry): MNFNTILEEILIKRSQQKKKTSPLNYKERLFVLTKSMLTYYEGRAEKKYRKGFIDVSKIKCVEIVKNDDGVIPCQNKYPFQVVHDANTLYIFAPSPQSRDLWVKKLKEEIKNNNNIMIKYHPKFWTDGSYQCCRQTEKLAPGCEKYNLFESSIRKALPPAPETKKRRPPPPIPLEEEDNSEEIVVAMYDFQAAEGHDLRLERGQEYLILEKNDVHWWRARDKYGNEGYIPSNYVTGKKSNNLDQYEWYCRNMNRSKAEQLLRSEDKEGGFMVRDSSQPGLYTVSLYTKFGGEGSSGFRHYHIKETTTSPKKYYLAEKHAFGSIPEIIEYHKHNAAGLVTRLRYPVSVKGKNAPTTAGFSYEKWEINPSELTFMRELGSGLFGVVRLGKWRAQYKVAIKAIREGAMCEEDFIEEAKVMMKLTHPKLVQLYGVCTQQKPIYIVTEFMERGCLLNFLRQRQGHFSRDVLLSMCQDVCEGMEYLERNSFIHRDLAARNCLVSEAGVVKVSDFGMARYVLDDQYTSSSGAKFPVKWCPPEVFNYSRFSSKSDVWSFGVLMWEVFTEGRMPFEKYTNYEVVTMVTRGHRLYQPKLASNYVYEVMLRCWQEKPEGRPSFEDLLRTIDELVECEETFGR

[5] = target: Receptor tyrosine-protein kinase erbB-2 (Homo sapiens, UniProt P04626); test: Inhibition of His-tagged human recombinant ERBB2 (676 to 1255 residues) expressed in baculovirus expression system using Tyr 06 as substrate preincubated for 1 hr in presence of ATP by Z'-LYTE assay
[6] = target: Receptor tyrosine-protein kinase erbB-4 (Homo sapiens, UniProt Q15303); test: Inhibition of recombinant human N-terminal GST-tagged ERBB4 catalytic domain (708 to 993 residues) expressed in baculovirus expression system using tyrosine-1 peptide as substrate preincubated for 1 hr in presence of ATP by Z'-LYTE assay
[7] = target: T2, Epidermal growth factor receptor; test: Inhibition of EGFR phosphorylation in human A431 cells; assay type: cell-based
[8] = In vivo inhibition of CD69 expression in po dosed mouse; assay type: functional
[9] = Inhibition of goat anti-human IgM F(ab')-stimulated CD86 cell surface expression in human PBMC preincubated for 2 hrs followed by anti-human IgM stimulation for 18 hrs by flow cytometric analysis; assay type: functional, tissue-based
Blood = test: Inhibition of mouse anti-human anti-IgD-stimulated CD86 cell surface expression in human whole blood preincubated for 2 hrs followed by anti-human anti-IgD stimulation for 18 hrs by flow cytometric analysis; assay type: functional, tissue-based
EGFR (phosphorylation) = EGFR (phosphorylation) (Homo sapiens, UniProt P00533); test: Inhibition of EGFR phosphorylation in human A431 cells at 10000 nM relative to control; assay type: cell-based

Chain of Receptor tyrosine-protein kinase erbB-4 (Q15303 whole entry, the tested form may be a part): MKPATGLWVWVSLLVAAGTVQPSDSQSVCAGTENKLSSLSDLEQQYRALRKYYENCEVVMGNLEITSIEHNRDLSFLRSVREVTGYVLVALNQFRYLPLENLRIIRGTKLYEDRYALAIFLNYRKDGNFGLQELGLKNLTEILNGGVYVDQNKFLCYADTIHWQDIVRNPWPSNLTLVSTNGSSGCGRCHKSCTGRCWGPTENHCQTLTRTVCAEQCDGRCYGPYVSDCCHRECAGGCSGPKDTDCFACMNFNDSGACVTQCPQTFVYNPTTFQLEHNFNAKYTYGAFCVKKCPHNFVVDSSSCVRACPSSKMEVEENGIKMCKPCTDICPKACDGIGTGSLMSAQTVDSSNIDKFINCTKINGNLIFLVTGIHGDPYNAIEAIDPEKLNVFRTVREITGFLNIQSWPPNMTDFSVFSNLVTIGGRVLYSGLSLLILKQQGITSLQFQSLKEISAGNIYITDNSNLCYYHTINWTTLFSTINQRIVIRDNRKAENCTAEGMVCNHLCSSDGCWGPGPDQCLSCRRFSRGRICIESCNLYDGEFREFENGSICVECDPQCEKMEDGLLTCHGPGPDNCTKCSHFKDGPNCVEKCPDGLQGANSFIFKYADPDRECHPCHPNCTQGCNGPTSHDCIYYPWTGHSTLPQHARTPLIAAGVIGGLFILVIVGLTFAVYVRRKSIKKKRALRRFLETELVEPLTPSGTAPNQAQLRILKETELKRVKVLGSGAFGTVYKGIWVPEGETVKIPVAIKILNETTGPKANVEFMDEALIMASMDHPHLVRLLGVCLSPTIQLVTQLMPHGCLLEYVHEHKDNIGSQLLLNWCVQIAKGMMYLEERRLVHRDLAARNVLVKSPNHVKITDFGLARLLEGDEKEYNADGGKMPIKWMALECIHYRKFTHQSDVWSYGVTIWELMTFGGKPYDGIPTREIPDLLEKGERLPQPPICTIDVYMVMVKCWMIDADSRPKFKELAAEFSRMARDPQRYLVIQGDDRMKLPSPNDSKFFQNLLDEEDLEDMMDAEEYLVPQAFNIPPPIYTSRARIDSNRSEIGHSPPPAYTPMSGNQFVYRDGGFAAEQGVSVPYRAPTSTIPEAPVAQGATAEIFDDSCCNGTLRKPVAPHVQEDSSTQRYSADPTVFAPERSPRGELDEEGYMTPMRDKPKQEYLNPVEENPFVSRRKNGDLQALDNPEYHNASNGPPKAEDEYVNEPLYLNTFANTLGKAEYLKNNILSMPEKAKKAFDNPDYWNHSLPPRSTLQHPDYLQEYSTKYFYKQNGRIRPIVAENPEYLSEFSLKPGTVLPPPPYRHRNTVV
T2 sequence (P00533 whole entry, the tested form may be a part): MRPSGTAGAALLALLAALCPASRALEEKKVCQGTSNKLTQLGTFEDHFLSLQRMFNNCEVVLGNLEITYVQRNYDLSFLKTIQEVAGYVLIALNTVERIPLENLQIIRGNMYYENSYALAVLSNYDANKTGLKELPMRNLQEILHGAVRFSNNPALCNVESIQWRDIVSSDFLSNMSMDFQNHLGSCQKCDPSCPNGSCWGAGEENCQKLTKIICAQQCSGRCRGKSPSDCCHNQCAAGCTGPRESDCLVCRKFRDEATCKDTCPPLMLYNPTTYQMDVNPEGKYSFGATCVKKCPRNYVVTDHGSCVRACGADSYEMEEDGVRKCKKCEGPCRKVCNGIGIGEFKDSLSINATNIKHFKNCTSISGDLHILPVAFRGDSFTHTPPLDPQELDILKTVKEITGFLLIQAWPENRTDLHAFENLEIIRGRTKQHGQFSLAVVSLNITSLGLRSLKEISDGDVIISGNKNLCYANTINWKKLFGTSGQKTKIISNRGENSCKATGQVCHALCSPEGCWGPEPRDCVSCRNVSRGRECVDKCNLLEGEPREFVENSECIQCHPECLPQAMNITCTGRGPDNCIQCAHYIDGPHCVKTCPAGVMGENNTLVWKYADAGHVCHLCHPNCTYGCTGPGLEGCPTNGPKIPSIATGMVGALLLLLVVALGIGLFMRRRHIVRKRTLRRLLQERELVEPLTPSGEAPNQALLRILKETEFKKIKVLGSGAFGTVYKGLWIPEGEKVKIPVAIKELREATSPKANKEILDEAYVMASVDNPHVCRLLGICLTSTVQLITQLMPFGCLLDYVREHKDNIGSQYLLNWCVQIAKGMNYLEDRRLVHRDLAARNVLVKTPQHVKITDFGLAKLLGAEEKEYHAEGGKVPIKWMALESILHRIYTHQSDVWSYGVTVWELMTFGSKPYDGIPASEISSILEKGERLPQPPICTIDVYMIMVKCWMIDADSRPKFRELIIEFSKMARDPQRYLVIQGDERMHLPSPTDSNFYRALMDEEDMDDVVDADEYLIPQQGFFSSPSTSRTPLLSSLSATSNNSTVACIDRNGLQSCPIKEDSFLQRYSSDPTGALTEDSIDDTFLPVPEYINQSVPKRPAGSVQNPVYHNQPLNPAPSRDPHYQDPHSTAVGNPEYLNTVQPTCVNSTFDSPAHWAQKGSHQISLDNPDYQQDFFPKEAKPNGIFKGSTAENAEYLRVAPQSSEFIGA
T1 sequence (Q06187 whole entry, the tested form may be a part): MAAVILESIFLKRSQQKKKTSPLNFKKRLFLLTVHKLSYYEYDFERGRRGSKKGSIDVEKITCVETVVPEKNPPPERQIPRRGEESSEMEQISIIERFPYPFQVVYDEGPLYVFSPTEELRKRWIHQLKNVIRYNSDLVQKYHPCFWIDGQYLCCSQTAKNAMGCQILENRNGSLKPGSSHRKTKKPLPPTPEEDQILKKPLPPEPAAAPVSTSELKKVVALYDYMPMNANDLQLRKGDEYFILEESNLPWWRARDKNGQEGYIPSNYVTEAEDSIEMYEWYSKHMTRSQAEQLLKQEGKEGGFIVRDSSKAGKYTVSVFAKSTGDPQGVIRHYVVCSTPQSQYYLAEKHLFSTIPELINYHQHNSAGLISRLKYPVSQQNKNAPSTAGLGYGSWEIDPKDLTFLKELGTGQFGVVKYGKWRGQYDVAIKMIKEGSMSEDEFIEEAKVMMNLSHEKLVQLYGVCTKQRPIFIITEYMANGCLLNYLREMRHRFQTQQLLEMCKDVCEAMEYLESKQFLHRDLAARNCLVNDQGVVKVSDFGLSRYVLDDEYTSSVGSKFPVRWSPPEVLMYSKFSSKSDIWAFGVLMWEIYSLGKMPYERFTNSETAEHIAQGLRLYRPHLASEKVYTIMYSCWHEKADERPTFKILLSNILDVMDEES
Chain of Receptor tyrosine-protein kinase erbB-2 (P04626 whole entry, the tested form may be a part): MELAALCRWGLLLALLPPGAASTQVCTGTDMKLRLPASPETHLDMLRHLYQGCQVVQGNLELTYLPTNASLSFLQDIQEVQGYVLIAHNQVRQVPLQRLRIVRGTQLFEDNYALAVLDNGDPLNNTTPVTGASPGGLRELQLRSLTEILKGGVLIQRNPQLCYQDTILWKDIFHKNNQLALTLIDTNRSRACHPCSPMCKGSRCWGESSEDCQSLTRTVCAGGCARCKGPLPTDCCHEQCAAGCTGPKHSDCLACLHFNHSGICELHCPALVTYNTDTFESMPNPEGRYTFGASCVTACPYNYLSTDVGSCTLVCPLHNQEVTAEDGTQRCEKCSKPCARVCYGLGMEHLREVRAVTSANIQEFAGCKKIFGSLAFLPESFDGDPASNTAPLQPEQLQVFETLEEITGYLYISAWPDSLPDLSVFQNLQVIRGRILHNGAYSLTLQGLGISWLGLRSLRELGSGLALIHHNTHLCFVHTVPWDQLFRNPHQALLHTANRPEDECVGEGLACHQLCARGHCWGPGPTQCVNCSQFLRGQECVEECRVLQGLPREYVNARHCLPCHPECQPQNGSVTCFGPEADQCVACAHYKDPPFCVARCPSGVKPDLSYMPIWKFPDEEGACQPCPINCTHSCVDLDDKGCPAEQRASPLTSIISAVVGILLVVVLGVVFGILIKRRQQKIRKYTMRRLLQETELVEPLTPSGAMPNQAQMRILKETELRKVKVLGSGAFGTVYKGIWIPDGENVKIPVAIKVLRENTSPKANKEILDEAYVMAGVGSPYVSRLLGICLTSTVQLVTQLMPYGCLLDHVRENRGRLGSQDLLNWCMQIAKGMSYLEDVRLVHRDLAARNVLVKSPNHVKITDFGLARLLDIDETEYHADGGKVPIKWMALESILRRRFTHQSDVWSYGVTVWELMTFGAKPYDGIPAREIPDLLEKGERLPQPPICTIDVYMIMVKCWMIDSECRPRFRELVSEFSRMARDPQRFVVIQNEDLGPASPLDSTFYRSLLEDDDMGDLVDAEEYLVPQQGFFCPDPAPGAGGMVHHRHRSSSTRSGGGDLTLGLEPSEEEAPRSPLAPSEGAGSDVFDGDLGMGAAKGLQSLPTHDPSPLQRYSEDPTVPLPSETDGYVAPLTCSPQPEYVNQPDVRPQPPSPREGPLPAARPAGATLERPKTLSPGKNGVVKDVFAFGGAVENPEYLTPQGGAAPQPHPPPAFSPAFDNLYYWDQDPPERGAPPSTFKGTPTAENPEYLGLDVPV

IC50 [1] | IC50 [2] | IC50 [3] | IC50 [4] | IC50 [5] | IC50 [6] | EC50 [7] | EC50 [9] | EC50 (Blood) | inhibition at 10 µM (EGFR (phosphorylation)) | Compound | ED50 [8]
1.6 nM | 138 nM | 1.5 nM | 184 nM | 41 nM | 901 nM | > 1000 nM |  |  |  | COc1cc2nccc(Oc3ccc(C(=O)Nc4ccccn4)cc3)c2cc1NC(=O)C#CCCN1CCOCC1 | 13 mg/kg
0.54 nM | > 1000 nM | 8.3 nM | 219 nM | > 1000 nM | 37 nM | > 1000 nM |  |  |  | CC#CC(=O)Nc1cc2c(Oc3ccc(C(=O)Nc4ccccn4)cc3)ccnc2cc1OCCN1CCOCC1 | 
1.2 nM | 958 nM | 4 nM | 38 nM | 268 nM | 16 nM |  | 21 nM | 267 nM | 36% | C=CC(=O)Nc1ccc2nccc(Oc3ccc(C(=O)Nc4cc(CC)ccn4)cc3)c2c1 | 
